Experimental data published in patent publication US7417156B2, “Orally active, antimalarial, anticancer, artemisinin-derived trioxane dimers” (Johns Hopkins University, priority 2002, dated 2008).

Key:
MDA-MB-435 = test: NCI 60 cell line panel screen (SRB); format: cell-based, human
HT29 = test: NCI 60 cell line panel screen (SRB); format: cell-based, human
NCI-H460 = test: NCI 60 cell line panel screen (SRB); format: cell-based, human
HOP-62 = test: NCI 60 cell line panel screen (SRB); format: cell-based, human
A549/ATCC = test: NCI 60 cell line panel screen (SRB); format: cell-based, human
MDA-MB231/ATCC = test: NCI 60 cell line panel screen (SRB); format: cell-based, human
MALME-3M = test: NCI 60 cell line panel screen (SRB); format: cell-based, human
NCI-H522 = test: NCI 60 cell line panel screen (SRB); format: cell-based, human
UACC-257 = test: NCI 60 cell line panel screen (SRB); format: cell-based, human; settings: UACC-257 (Melanoma)
CAKI-1 = test: NCI 60 cell line panel screen (SRB); format: cell-based, human
EKVX = test: NCI 60 cell line panel screen (SRB); format: cell-based, human
HCT-15 = test: NCI 60 cell line panel screen (SRB); format: cell-based, human
HCT-116 = test: NCI 60 cell line panel screen (SRB); format: cell-based, human
786-0 = test: NCI 60 cell line panel screen (SRB); format: cell-based, human
NCI/ADR-RES = test: NCI 60 cell line panel screen (SRB); format: cell-based, human
SNB-75 = test: NCI 60 cell line panel screen (SRB); format: cell-based, human; settings: SNB-75 (CNS Cancer)
K-562 = test: NCI 60 cell line panel screen (SRB); format: cell-based, human
[1] = system: chloroquine-sensitive P. falciparum (NF54); test: Antimalarial activity in vitro, [3H]hypoxanthine incorporation; format: cell-based; settings: Table I; NF54 strain; read-out: IC50
SF-268 = test: NCI 60 cell line panel screen (SRB); format: cell-based, human
MCF7 = test: NCI 60 cell line panel screen (SRB); format: cell-based, human
SK-MEL-28 = test: NCI 60 cell line panel screen (SRB); format: cell-based, human
M14 = test: NCI 60 cell line panel screen (SRB); format: cell-based, human
SK-OV-3 = test: NCI 60 cell line panel screen (SRB); format: cell-based, human
RPMI-8226 = test: NCI 60 cell line panel screen (SRB); format: cell-based, human
COLO 205 = test: NCI 60 cell line panel screen (SRB); format: cell-based, human

With `CC1CCC2C(C)C(CC(O)(CC3OC4OC5(C)CCC6C(C)CCC(C3C)C46OO5)CS(=O)(=O)c3ccc(C(=O)O)cc3)OC3OC4(C)CCC1C32OO4` (stereo not drawn) [Compound 10c, bis-trioxane β-hydroxysulfone benzoic acid] the Log10GI50 (MDA-MB-435; Breast Cancer, MDA-MB-435) was <−8.30, the Log10LC50 (MDA-MB-435; MDA-MB-435 (Breast Cancer), LC50: PG=−50) was −4.60 log10M and the Log10TGI50 (MDA-MB-435; MDA-MB-435 (Breast Cancer), TGI: PG=0) was −5.17 log10M. The Log10GI50 (HT29; Colon Cancer, HT29) was <−8.30, the Log10LC50 (HT29; HT29 (Colon Cancer), LC50: PG=−50) was >−4.30 log10M and the Log10TGI50 (HT29; HT29 (Colon Cancer), TGI: PG=0) was >−4.30 log10M. For the same molecule, the Log10LC50 (NCI-H460; NCI-H460 (Non-Small Cell Lung Cancer), LC50: PG=−50) was −4.62 log10M, the Log10TGI50 (NCI-H460; NCI-H460 (Non-Small Cell Lung Cancer), TGI: PG=0) was −5.11 log10M and the Log10GI50 (NCI-H460; Non-Small Cell Lung Cancer, NCI-H460) was <−8.30. The Log10LC50 (HOP-62; HOP-62 (Non-Small Cell Lung Cancer), LC50: PG=−50) was −4.62 log10M, the Log10TGI50 (HOP-62; HOP-62 (Non-Small Cell Lung Cancer), TGI: PG=0) was −5.01 log10M and the Log10GI50 (HOP-62; Non-Small Cell Lung Cancer, HOP-62) was <−8.30. The Log10LC50 (A549/ATCC; A549/ATCC (Non-Small Cell Lung Cancer), LC50: PG=−50) was >−4.30 log10M, the Log10TGI50 (A549/ATCC; A549/ATCC (Non-Small Cell Lung Cancer), TGI: PG=0) was >−4.30 log10M and the Log10GI50 (A549/ATCC; Non-Small Cell Lung Cancer, A549/ATCC) was −5.28. For the same molecule, the Log10GI50 (MDA-MB231/ATCC; Breast Cancer, MDA-MB231/ATCC) was <−8.30, the Log10LC50 (MDA-MB231/ATCC; MDA-MB231/ATCC (Breast Cancer), LC50: PG=−50) was −5.02 log10M and the Log10TGI50 (MDA-MB231/ATCC; MDA-MB231/ATCC (Breast Cancer), TGI: PG=0) was <−8.30 log10M. The Log10LC50 (MALME-3M; MALME-3M (Melanoma), LC50: PG=−50) was −4.80 log10M, the Log10TGI50 (MALME-3M; MALME-3M (Melanoma), TGI: PG=0) was <−8.30 log10M and the Log10GI50 (MALME-3M; Melanoma, MALME-3M) was <−8.30. For the same molecule, the Log10TGI50 (NCI-H522; NCI-H522 (Non-Small Cell Lung Cancer), TGI: PG=0) was −4.34 log10M, the Log10LC50 (NCI-H522; NCI-H-522 (Non-Small Cell Lung Cancer), LC50: PG=−50) was >−4.30 log10M and the Log10GI50 (NCI-H522; Non-Small Cell Lung Cancer, NCI-H522) was <−8.30. For the same molecule, the Log10LC50 (UACC-257; LC50: PG=−50) was >−4.30 log10M, the Log10TGI50 (UACC-257; TGI: PG=0) was −4.38 log10M and the Log10LC50 (CAKI-1; CAKI-1 (Renal Cancer), LC50: PG=−50) was −4.93 log10M. For the same molecule, the Log10TGI50 (CAKI-1; CAKI-1 (Renal Cancer), TGI: PG=0) was −6.71 log10M, the Log10GI50 (CAKI-1; Renal Cancer, CAKI-1) was <−8.30 and the Log10LC50 (EKVX; EKVX (Non-Small Cell Lung Cancer), LC50: PG=−50) was >−4.30 log10M. For the same molecule, the Log10TGI50 (EKVX; EKVX (Non-Small Cell Lung Cancer), TGI: PG=0) was −4.63 log10M, the Log10GI50 (EKVX; Non-Small Cell Lung Cancer, EKVX) was −4.99 and the Log10GI50 (HCT-15; Colon Cancer, HCT-15) was <−8.30. For the same molecule, the Log10LC50 (HCT-15; HCT-15 (Colon Cancer), LC50: PG=−50) was −4.70 log10M, the Log10TGI50 (HCT-15; HCT-15 (Colon Cancer), TGI: PG=0) was −5.23 log10M and the Log10GI50 (HCT-116; Colon Cancer, HCT-116) was <−8.30. For the same molecule, the Log10LC50 (HCT-116; HCT-116 (Colon Cancer), LC50: PG=−50) was −4.72 log10M, the Log10TGI50 (HCT-116; HCT-116 (Colon Cancer), TGI: PG=0) was −5.16 log10M and the Log10LC50 (786-0; 786-0 (Renal Cancer), LC50: PG=−50) was −4.64 log10M. For the same molecule, the Log10TGI50 (786-0; 786-0 (Renal Cancer), TGI: PG=0) was −5.08 log10M, the Log10GI50 (786-0; Renal Cancer, 786-0) was <−8.30 and the Log10GI50 (NCI/ADR-RES; Breast Cancer, NCI/ADR-RES) was −5.73. The Log10LC50 (NCI/ADR-RES; NCI/ADR-RES (Breast Cancer), LC50: PG=−50) was −4.63 log10M, the Log10TGI50 (NCI/ADR-RES; NCI/ADR-RES (Breast Cancer), TGI: PG=0) was −5.09 log10M and the Log10LC50 (SNB-75; LC50: PG=−50) was −4.32 log10M. The Log10TGI50 (SNB-75; TGI: PG=0) was −4.80 log10M, the Log10LC50 (K-562; K-562 (Leukemia), LC50: PG=−50) was >−4.30 log10M and the Log10TGI50 (K-562; K-562 (Leukemia), TGI: PG=0) was −4.75 log10M. For the same molecule, the Log10GI50 (K-562; Leukemia, K-562) was <−8.30, the IC50 [1] was 2.4 nM and the Log10GI50 (SF-268; CNS Cancer, SF-268) was <−8.30. The Log10LC50 (SF-268; SF-268 (CNS Cancer), LC50: PG=−50) was −4.59 log10M, the Log10TGI50 (SF-268; SF-268 (CNS Cancer), TGI: PG=0) was −5.14 log10M and the Log10GI50 (MCF7; Breast Cancer, MCF7) was <−8.30. For the same molecule, the Log10LC50 (MCF7; MCF7 (Breast Cancer), LC50: PG=−50) was >−4.30 log10M, the Log10TGI50 (MCF7; MCF7 (Breast Cancer), TGI: PG=0) was −5.13 log10M and the Log10GI50 (SK-MEL-28; Melanoma, SK-MEL-28) was −5.45. The Log10LC50 (SK-MEL-28; SK-MEL-28 (Melanoma), LC50: PG=−50) was >−4.30 log10M, the Log10TGI50 (SK-MEL-28; SK-MEL-28 (Melanoma), TGI: PG=0) was −4.63 log10M and the Log10LC50 (M14; M14 (Melanoma), LC50: PG=−50) was −4.42 log10M. For the same molecule, the Log10TGI50 (M14; M-14 (Melanoma), TGI: PG=0) was −4.91 log10M, the Log10GI50 (M14; Melanoma, M14) was <−8.30 and the Log10GI50 (SK-OV-3; Ovarian Cancer, SK-OV-3) was −6.82. The Log10LC50 (SK-OV-3; SK-OV-3 (Ovarian Cancer), LC50: PG=−50) was −4.47 log10M, the Log10TGI50 (SK-OV-3; SK-OV-3 (Ovarian Cancer), TGI: PG=0) was −4.92 log10M and the Log10GI50 (RPMI-8226; Leukemia, RPMI-8226) was <−8.30. For the same molecule, the Log10LC50 (RPMI-8226; RPMI-8226 (Leukemia), LC50: PG=−50) was >−4.30 log10M, the Log10TGI50 (RPMI-8226; RPMI-8226 (Leukemia), TGI: PG=0) was −5.03 log10M and the Log10LC50 (COLO 205; COLO 205 (Colon Cancer), LC50: PG=−50) was −5.55 log10M. The Log10TGI50 (COLO 205; COLO 205 (Colon Cancer), TGI: PG=0) was <−8.30 log10M and the Log10GI50 (COLO 205; Colon Cancer, COLO 205) was <−8.30.
